Reference: patent US6875872B1, “Compounds” (AstraZeneca, priority 1993, dated 2005)

Key:
[1] = Racemization experiment in aqueous phosphate buffer pH 11 warmed at 37° C.; type: physicochemical; conditions: aqueous phosphate buffer solution pH=11, c=10^-5 M, 26 hours at 37° C.
[2] = Stability towards racemization at different pH values (aqueous buffer solutions, refrigerator, optical purity by chiral column chromatography); type: physicochemical; conditions: for racemization (stereochemical stability): after 16 days
Experimental: Stability Towards Racemization at Different pH Values
The stability of the optically pure compounds of the invention against racemization has been measured at low concentrations in a refrigerator in aqueous buffer solutions at pH 8, 9.3, 10 and 11.2. The stereochemical stability was measured by comparing the optical purity for the (−)-isomer of 5-methoxy-2-[[(4-methoxy-3,5-dimethyl-2-pyridinyl)-methyl]sulfinyl]-1H-benzimidazole in buffer solution immediately after dissolving and after several days. The measurement was performed by chromatography on an analytical chiral column.

Row | SMILES | racemization [1] | racemization (stereochemical stability) ([2]; aqueous buffer solution pH 8, refrigerator) | racemization (stereochemical stability) ([2]; aqueous buffer solution pH 9.3, refrigerator) | racemization (stereochemical stability) ([2]; aqueous buffer solution pH 10, refrigerator) | racemization (stereochemical stability, optical purity immediately after dissolving vs after several days) ([2]; aqueous buffer solution pH 11.2, refrigerator, low concentration, after 21 days) | chemical degradation of the compound ([2]; aqueous buffer solutions pH 8, 9.3 and 10, refrigerator (compared with pH 11.2))
1 | COc1ccc2[nH]c([S+]([O-])Cc3ncc(C)c(OC)c3C)nc2c1.[Na+] (single isomer, unassigned; (+)) [(+)-5-methoxy-2-[[(4-methoxy-3,5-dimethyl-2-pyridinyl)methyl]sulfinyl]-1H-benzimidazole sodium salt] | without any racemization at all being observed |  |  |  |  | 
2 | COc1ccc2[nH]c([S+]([O-])Cc3ncc(C)c(OC)c3C)nc2c1 (single isomer, unassigned; (-)) [(−)-5-methoxy-2-[[(4-methoxy-3,5-dimethyl-2-pyridinyl)methyl]-sulfinyl]-1H-benzimidazole] |  | at none of these pH values a detectable racemization was obtained | at none of these pH values a detectable racemization was obtained | at none of these pH values a detectable racemization was obtained | no racemization | more apparent
